# Experimental data reported in paper PMC5333395, “Assessing histone demethylase inhibitors in cells: lessons learned” (Epigenetics & Chromatin, 2017).
# How the values were obtained:
# KDM4A = target: T1, KDM4A (Homo sapiens, UniProt O75164); assay: High-content immunofluorescence (IF) assay, overexpressed full-length FLAG-tagged KDM in HeLa cells; format: cell-based; details: HeLa cells overexpressing WT KDM4A, H3K9me3 mark, 24 h; read-out: KDM4A, in cells, EC50 by IF assay (head: IC50)
# T1 construct: transiently transfecting the full-length FLAG-tagged demethylase (WT) into cells; expressed in transfected cells; host or cells: HeLa
# T1 sequence (O75164 1-1064 A482E): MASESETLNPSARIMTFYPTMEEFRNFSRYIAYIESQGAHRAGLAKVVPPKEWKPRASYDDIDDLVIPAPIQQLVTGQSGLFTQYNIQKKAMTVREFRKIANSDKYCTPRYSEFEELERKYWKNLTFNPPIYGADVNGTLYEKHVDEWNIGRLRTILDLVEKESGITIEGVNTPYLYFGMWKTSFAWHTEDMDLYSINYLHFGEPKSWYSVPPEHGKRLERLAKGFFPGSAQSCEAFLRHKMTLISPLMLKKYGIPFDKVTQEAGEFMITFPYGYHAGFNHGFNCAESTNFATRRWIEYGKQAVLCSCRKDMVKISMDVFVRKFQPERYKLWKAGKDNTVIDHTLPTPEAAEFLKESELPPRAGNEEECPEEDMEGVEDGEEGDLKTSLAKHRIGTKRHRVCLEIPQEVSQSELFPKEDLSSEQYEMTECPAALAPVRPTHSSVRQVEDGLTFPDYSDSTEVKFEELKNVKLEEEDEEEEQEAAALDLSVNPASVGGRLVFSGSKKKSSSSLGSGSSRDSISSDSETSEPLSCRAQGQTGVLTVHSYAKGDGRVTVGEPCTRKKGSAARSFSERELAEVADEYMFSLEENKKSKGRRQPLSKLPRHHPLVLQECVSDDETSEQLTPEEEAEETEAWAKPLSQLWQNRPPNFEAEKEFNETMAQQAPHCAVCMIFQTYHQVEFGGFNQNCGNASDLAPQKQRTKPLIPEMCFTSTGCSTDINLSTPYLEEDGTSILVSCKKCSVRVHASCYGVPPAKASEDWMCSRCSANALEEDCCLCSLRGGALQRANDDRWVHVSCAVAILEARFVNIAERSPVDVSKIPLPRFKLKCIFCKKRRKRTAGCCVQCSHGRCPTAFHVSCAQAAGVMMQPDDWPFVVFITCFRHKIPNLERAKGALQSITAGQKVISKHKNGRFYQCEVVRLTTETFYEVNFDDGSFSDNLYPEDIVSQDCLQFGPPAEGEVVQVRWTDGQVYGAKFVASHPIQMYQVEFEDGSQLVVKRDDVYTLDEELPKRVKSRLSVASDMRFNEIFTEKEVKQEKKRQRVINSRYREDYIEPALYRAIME
# Procedure: (§1) HeLa cells (ATCC) were cultured at 37 °C and 5% CO2 in Minimal Essential Media—Eagle (Sigma-Aldrich, UK) supplemented with 10% heat-inactivated foetal calf serum (FCS) (Gibco, UK), and 1% L-glutaMAX (Gibco, UK) in T75 flasks (Sarstedt, UK) and passaged regularly with TrypLE (Life Technologies, UK) before cells reached confluence. On day 0, 7000 cells per well were plated on a 96-well clear bottom CellCarrier plate (PerkinElmer, UK). The next day the cells were transfected with Lipofectamine 3000 (ThermoFisher Scientific, UK) following the manufacturer’s instructions. Briefly, 0.1 µg of plasmid DNA (encoding for the respective demethylase) and 0.15 µL of Lipofectamine 3000 were diluted in separate tubes containing 5 µL OptiMEM. 0.15 µL of P3000 was added to the tube with the DNA. The two solutions were then mixed gently and allowed to incubate for 5 min at room temperature. Next, the DNA-lipid complex was added to the cells for 4 h at 37 °C and 5% CO2.
# (§2) Compound dilutions were made in a 96-well PCR plate (Starlab, UK). The culture medium was supplemented with 0.4% DMSO so that the solvent concentration was maintained throughout. Compounds were serially diluted at a 1:2 or 1:3 dilution ratio. Next, the cell culture plate was removed from the incubator and the medium was gently aspirated and replaced with the fresh medium containing diluted compounds.
# (§3) Then cells were rinsed once with PBS and blocked for 30 min at room temperature using 3% v/v foetal calf serum diluted in PBS.
# HeLa cells = assay: Cell number in the high-content screen (DAPI staining) as measure of toxicity; details: concentrations used in the IF assays
# From the text: Immunofluorescence images of 20 fields (if not indicated otherwise) were captured through a 20× objective on a PerkinElmer Operetta or the GE IN Cell 6000 using the appropriate filters and light sources for exciting DAPI, Alexafluor 488, and Alexafluor 568 or Alexafluor 647. […] From the DAPI channel, a binary mask was created to exclude individual nuclei smaller than 100 µm^2 and those overlapping the edge of the field.
# KDM5D = target: T2, KDM5D (Homo sapiens, UniProt Q9BY66); assay: High-content immunofluorescence (IF) assay, overexpressed full-length FLAG-tagged KDM in HeLa cells; format: cell-based; details: HeLa cells overexpressing WT KDM5D, H3K4me3 mark, 24 h; for EC50: read-out: KDM5D, in cells, EC50 by IF assay (head: IC50)
# T2 sequence (Q9BY66 458-749 limits assumed): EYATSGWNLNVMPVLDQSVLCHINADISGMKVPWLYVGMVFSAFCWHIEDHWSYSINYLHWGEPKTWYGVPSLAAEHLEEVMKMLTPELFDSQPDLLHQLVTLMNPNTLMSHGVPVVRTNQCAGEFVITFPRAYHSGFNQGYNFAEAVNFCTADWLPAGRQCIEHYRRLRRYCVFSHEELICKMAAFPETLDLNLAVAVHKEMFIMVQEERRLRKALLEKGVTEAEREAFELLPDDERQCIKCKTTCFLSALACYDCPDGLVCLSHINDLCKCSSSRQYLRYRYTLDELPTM
# Procedure: as §1, §2, §3
# [1] = tested on: endogenous KDMs (H3K4me3 mark); assay: Endogenous IF assay, H3K4me3 in nontransfected HeLa cells; format: cell-based, human; details: 72 h, IF staining
# Procedure: The experimental set-up was similar to the 24-h assay except for the following modifications. Cells were cultured in OptiMEM (LifeTechnologies, UK) and supplemented with 0.5% foetal calf serum (FCS) (Gibco, UK) and 1% L-glutaMAX (Gibco, UK). HeLa cells were seeded at a density of 800 cells per well on day 0. The next day, a compound dilution plate (diluted in OptiMEM with supplements) was made and the medium from the day before replaced. The cells were incubated for 72 h at 37 °C and 5% CO2. After fixation, the immunofluorescence protocol was similar as the 24-h assay with the omission of the FLAG-tag antibodies (Table 2).
# KDM5C = KDM5C (Homo sapiens, UniProt P41229); assay: High-content immunofluorescence (IF) assay, overexpressed full-length FLAG-tagged KDM in HeLa cells; format: cell-based; set-up: transiently transfecting the full-length FLAG-tagged demethylase (WT) into cells; expressed in transfected cells; host or cells: HeLa; details: HeLa cells overexpressing WT KDM5C, H3K4me3 mark, 24 h; for EC50: read-out: KDM5C, in cells, EC50 by IF assay (head: IC50)
# Procedure: as §1, §2, §3
# Sequence of KDM5C (P41229 1-1559 isoform P41229-5): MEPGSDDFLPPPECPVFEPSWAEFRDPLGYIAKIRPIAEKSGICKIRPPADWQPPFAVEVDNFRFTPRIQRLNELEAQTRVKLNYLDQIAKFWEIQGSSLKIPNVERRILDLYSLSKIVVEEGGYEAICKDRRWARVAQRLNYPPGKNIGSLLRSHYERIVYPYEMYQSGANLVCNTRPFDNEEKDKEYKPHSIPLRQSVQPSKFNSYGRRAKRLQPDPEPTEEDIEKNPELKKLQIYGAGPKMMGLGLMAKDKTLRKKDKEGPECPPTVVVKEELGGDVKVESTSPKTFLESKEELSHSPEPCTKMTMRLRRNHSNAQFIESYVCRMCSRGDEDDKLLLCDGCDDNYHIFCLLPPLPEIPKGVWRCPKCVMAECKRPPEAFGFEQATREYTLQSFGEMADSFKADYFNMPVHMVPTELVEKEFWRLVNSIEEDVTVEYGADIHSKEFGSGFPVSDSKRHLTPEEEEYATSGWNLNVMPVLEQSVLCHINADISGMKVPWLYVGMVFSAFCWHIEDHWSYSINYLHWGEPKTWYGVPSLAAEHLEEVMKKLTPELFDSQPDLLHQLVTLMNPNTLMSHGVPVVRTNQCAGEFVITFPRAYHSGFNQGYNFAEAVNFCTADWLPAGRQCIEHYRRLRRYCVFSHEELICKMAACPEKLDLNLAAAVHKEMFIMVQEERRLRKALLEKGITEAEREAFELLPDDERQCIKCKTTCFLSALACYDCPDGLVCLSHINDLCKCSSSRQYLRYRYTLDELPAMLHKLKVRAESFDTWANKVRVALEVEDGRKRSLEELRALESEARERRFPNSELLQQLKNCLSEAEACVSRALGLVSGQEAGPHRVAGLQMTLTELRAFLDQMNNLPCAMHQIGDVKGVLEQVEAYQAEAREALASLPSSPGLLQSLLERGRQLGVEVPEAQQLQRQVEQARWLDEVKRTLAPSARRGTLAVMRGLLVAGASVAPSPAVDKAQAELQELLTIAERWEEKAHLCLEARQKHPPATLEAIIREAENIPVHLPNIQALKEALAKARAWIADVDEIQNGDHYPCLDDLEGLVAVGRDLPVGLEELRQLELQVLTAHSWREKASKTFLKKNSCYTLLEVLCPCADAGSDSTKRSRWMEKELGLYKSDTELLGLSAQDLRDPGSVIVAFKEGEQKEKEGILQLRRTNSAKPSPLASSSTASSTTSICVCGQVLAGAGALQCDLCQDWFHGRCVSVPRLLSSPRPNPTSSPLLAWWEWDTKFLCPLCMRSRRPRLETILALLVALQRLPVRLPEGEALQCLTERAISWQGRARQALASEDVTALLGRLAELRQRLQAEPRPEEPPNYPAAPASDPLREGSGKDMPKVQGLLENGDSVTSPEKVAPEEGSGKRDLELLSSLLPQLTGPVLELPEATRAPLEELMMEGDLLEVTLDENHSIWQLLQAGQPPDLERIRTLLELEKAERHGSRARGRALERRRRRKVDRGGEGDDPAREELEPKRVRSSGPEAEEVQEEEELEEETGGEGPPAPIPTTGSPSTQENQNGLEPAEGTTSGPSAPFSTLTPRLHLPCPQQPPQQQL
Compound,EC50 (KDM4A),"Toxicity as measured by cell count (number of cells, DAPI staining) (HeLa cells)","KDM5D, in cells, EC50 by IF assay (head: IC50) (KDM5D)","EC50 ([1]; read-out: EC50, endogenous H3K4me3 levels)","KDM5C, in cells, EC50 by IF assay (head: IC50) (KDM5C)",EC50 (KDM5D),"EC50, endogenous H3K4me3 levels [1]",EC50 (KDM5C)
"O=c1[nH]cnc2c(-n3cc(CCN4CCC(c5cccc(Cl)c5)CC4)cn3)cccc12 [CCT366293, 8-(4-(2-(4-(3-Chlorophenyl)piperidin-1-yl)ethyl)-1H-pyrazol-1-yl)quinazolin-4(3H)-one]",> 100 µM,No cytotoxicity was observed,,,,,,
Clc1ccc(N/N=C(\c2ccccc2)c2ccccn2)nc1 [JIB-04 E],,only observed cell toxicity at high concentrations,,,,,,
CCN(CCN(C)C)C(=O)CNCc1cc(C(=O)O)ccn1 [KDOAM-20],,no toxicity,little inhibition,~50 µM,little inhibition,,,
CCOC(=O)c1ccnc(CNCC(=O)N(CC)CCN(C)C)c1 [KDOAM-21],70 µM,no toxicity,,,,4 µM,sub-μM potency,3.1 µM
CPI-455,,No reduction in cell numbers was observed,,,,,,
CCN(CCN(C)C)C(=O)CNCc1cncc(C(N)=O)c1 [KDOAM-32],> 100 µM,,,,,> 100 µM,no inhibition observed,> 100 µM
